Experimental data reported in patent US4675337A, “Non-mutagenic 1,2-disubstituted 4-nitro-imidazoles useful as antiprotozoal agents” (priority 1986, dated 1987).
Converted amounts (≈) assume the structure as drawn. Like-named read-outs stand apart in the source and are kept apart here.

What was measured:
[1] = test system: T. foetus; assay: Trichomonal activity in vivo: survival of mice infected i.p. with T. foetus; conditions: Tritrichomonas foetus, po, 336 h
Protocol: Mice were infected through intraperitoneal (I.P.) injection of 1.4×10^7 T. foetus. Each compound disclosed in Table I below was dissolved in an aqueous vehicle, dosed to groups of mice (consisting of five) by gavage. The mice were dosed once per day for four consecutive days with doses ranging from 1-50 mg/kg. The effective dose of the compound, ED50, was calculated from the number of animals surviving a two week period.

[2] = test system: T. foetus; assay: Trichomonal activity in vitro; assay type: cell-based; conditions: Tritrichomonas foetus, Table I, read-out: ED50 (T. foetus) in vitro
[3] = test system: Ames Salmonella TA100; conditions: for In vivo Safety Index (rel to flagyl): relative increase in safety (1/mutagenicity) at the ED50 dose, relative to flagyl
From the text: This test involves the addition to a fermentation medium in which is growing a particular organism identified as Ames Salmonella TA100, and measuring the number of mutant organisms formed.

[4] = Cytotoxicity in rat hepatocytes; assay type: cell-based; conditions: relative to control cells
From the text: **Relative viability is the number of hepatocytes surviving exposure to
the nitroimidazoles relative to the control cells.

[5] = test system: Rat hepatocytes; assay: Single strand DNA breaks in rat hepatocytes (elution); assay type: cell-based; conditions: for Relative Elution Slope: relative to control 1.00, ≥3.0 significant
From the text: *Measure of the extent of DNA strand cleavage. Only relative elution
slopes ≥3.0 are considered significant. Therefore, […]

[6] = Table I, gavage once per day for four consecutive days, survival over two weeks, read-out: ED50 (T. foetus) in vivo
[7] = Table III, read-out: T. foetus (ED50) In vivo
[8] = Table II, relative to ronidazole
[9] = Table II, read-out: T. foetus In Vivo (ED50)

Structure (SMILES) | ED50 [1, 6] | IC50 [2] | Mutagenicity ([3]; Table III, Ames TA100 strain) | ED50 [1, 7] | further results
CCn1cc([N+](=O)[O-])nc1S(C)(=O)=O [Compound 1] | 10 to 50 mg/kg | 25 µg/mL (≈ 114 µM) | – | – | –
CCS(=O)(=O)c1nc([N+](=O)[O-])cn1C [Compound 2, 1-methyl-2-ethylsulfonyl-4-nitroimidazole] | 2 to 5 mg/kg | 18.5 µg/mL (≈ 84.4 µM) | 0.1 percent ronidazole | 2 to 5 mg/kg | –
CCCS(=O)(=O)c1nc([N+](=O)[O-])cn1C [Compound 3, 1-methyl-2-propylsulfonyl-4-nitroimidazole] | 5 to 10 mg/kg | 27 µg/mL (≈ 116 µM) | 0.1 percent ronidazole | 5 to 10 mg/kg | –
CC(C)S(=O)(=O)c1nc([N+](=O)[O-])cn1C [Compound 4, 1-methyl-2-isopropylsulfonyl-4-nitroimidazole] | 5 to 10 mg/kg | 21 µg/mL (≈ 90 µM) | 0.1 percent ronidazole | 5 to 10 mg/kg | –
Cn1cc([N+](=O)[O-])nc1S(=O)(=O)c1ccccc1 [Compound 5, 1-methyl-2-phenylsulfonyl-4-nitroimidazole] | 10 to 25 mg/kg | 17 µg/mL (≈ 63.6 µM) | 0.1 percent ronidazole | 10 to 25 mg/kg | –
Cn1cc([N+](=O)[O-])nc1[S+](C)[O-] (stereo not drawn) [Compound 6, 1-methyl-2-methylsulfinyl-4-nitroimidazole] | 2 to 5 mg/kg | 14 µg/mL (≈ 74 µM) | – | – | –
CSc1nc([N+](=O)[O-])cn1C [Compound 7, 1-methyl-2-methylthio-4-nitroimidazole] | 5 to 10 mg/kg | 2.1 µg/mL (≈ 12.1 µM) | – | – | –
CCSc1nc([N+](=O)[O-])cn1C [Compound 8, 1-methyl-2-ethylthio-4-nitroimidazole] | 2 mg/kg | 2.3 µg/mL (≈ 12.3 µM) | – | – | viability at 500 µM ([4]; 0.5 mM): 107%; viability at 1500 µM ([4]; 1.5 mM): 105%; viability at 5000 µM ([4]; 5.0 mM): 102%; mutants per plate ([3]; 3 μg per plate): indistinguishable from background; mutants per plate ([3]; 30 μg per plate): indistinguishable from background; mutants per plate ([3]; 100 μg per plate): 30 mutants per plate; mutants per plate ([3]; 300 μg per plate): 65 mutants per plate; mutagenicity (conclusion in words) ([3]; Ames test): non-mutagenic; In vivo Safety Index (rel to flagyl) ([3]; Table II): > 1750; Mutagenicity [3, 8]: < 0.1 percent Ronidazole; ED50 [1, 9]: 2 mg/kg; Relative Elution Slope ([5]; 0.5 mM): 1.33; Relative Elution Slope ([5]; 1.5 mM): 1.23; Relative Elution Slope ([5]; 5.0 mM): 1.60; significant DNA strand breakage (in words) ([5]; up to 5.0 mM): did not cause significant DNA strand
CCCSc1nc([N+](=O)[O-])cn1C [Compound 9, 1-methyl-2-propylthio-4-nitroimidazole] | 5 mg/kg | 4 µg/mL (≈ 19.9 µM) | – | – | –
CC(C)Sc1nc([N+](=O)[O-])cn1C [Compound 10, 1-methyl-2-isopropylthio-4-nitroimidazole] | 10 to 50 mg/kg | 4 µg/mL (≈ 19.9 µM) | – | – | –
Cc1ncc([N+](=O)[O-])n1CCO [Flagyl, 1-(2-hydroxyethyl)-2-methyl-5-nitro-imidazole, reference compound] | 25 to 50 mg/kg | 0.4 µg/mL (≈ 2.34 µM) | – | 25 to 50 mg/kg | viability at 3000 µM ([4]; 3.0 mM): 107%; viability at 10000 µM ([4]; 10.0 mM): 101%; ED50 [1, 9]: 50 mg/kg; DNA strand breaks (in words) ([5]; at both 3.0 and 10.0 mM): caused breaks
Cn1c([N+](=O)[O-])cnc1COC(N)=O [Ronidazole, 1-methyl-2-[(carbamoyloxy)methyl]-5-nitroimidazole, reference compound] | – | – | 100.0 percent ronidazole | 5 to 10 mg/kg | mutants per plate ([3]; 3 μg per plate): 358 mutants per plate; mutants per plate ([3]; 30 μg per plate): 2682 mutants per plate; In vivo Safety Index (rel to flagyl) ([3]; Table II): 0.7; Mutagenicity [3, 8]: 100 percent Ronidazole; ED50 [1, 9]: 2 to 5 mg/kg
